ChEMBL document CHEMBL1133002 (J Med Chem, 2000)

Tests used:
[1] = biological target: T1, Adrenergic receptor alpha-1 (Rattus norvegicus, UniProt P15823+P23944+P43140); assay: in vitro alpha-1 adrenergic receptor binding assay from rats, using RX 821002 as the displaceable ligand; assay type: protein assay
T1 sequence (P15823 whole entry): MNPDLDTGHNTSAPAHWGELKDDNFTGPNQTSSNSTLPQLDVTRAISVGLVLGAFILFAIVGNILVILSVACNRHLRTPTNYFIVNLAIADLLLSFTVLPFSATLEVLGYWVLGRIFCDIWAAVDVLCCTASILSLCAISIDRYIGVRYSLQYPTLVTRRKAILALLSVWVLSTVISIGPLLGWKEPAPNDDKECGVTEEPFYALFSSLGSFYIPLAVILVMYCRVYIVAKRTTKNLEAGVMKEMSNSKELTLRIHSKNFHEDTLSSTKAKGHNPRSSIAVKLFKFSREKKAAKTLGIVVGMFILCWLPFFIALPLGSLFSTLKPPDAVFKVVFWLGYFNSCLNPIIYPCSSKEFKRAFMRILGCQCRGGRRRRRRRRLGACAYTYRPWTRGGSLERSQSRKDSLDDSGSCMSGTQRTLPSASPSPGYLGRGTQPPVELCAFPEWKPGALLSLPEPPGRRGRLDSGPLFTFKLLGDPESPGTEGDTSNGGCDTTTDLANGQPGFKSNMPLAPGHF
T1 sequence (P23944 whole entry): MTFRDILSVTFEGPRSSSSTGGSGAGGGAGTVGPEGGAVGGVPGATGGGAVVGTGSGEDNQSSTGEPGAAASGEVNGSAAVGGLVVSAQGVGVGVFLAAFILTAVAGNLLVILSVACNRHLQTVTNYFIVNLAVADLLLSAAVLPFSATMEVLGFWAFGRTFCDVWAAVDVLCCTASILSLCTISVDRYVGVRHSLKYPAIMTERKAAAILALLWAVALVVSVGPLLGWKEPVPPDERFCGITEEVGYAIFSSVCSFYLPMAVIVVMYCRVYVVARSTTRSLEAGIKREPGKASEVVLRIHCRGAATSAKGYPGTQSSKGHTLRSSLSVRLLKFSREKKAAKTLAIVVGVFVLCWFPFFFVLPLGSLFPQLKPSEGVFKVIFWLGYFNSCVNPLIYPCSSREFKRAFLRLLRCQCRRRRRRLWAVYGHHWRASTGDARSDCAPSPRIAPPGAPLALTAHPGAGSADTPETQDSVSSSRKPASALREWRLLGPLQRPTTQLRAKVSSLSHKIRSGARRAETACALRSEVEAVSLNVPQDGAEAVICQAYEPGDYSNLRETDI
T1 sequence (P43140 whole entry): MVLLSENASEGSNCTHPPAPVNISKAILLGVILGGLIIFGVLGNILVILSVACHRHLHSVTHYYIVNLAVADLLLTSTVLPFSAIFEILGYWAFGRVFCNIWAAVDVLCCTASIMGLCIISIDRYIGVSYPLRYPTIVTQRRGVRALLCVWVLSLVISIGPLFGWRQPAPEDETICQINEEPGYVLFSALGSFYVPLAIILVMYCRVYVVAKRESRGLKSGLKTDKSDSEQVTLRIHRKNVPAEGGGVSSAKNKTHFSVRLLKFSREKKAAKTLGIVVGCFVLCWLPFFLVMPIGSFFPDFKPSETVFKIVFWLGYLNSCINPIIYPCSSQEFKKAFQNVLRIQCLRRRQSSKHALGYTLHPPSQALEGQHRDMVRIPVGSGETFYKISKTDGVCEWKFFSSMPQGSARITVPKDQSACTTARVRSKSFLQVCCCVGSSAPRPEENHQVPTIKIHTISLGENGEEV

[2] = biological target: T2, Alpha-2A adrenergic receptor (Rattus norvegicus, UniProt P22909); assay: in vitro alpha-2A adrenergic receptor binding assay from rats, using RX 821002 as the displaceable ligand
T2 sequence (P22909 whole entry): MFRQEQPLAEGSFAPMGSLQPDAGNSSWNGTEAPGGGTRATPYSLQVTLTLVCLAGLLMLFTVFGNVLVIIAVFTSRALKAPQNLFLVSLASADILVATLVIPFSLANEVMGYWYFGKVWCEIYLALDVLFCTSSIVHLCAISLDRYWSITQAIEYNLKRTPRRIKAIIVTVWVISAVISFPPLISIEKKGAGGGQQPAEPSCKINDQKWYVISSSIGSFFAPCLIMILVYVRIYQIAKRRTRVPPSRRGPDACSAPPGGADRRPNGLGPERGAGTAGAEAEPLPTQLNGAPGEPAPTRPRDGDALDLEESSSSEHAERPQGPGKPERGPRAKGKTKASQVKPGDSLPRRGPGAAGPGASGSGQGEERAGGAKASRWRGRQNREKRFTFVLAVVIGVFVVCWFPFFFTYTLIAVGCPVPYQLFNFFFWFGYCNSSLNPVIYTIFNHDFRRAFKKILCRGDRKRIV

[3] = biological target: T3, Alpha-2B adrenergic receptor (Rattus norvegicus, UniProt P19328); assay: in vitro alpha-2B adrenergic receptor binding assay from rats, using RX 821002 as the displaceable ligand
T3 sequence (P19328 whole entry): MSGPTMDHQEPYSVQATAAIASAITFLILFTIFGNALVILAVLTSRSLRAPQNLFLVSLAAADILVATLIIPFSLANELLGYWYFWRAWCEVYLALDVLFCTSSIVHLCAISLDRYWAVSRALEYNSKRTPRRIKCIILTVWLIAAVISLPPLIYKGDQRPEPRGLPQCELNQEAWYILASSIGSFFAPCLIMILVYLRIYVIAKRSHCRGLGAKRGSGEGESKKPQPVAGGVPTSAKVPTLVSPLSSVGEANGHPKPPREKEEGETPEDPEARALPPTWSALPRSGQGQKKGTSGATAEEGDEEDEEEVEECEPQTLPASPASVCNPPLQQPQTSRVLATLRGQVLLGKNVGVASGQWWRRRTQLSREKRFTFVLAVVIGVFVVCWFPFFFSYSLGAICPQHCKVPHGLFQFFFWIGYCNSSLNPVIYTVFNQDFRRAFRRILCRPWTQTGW

[4] = species on record: Mus musculus; assay: Peroral ED50 value was measured using mouse 48 degree hot plate test; assay type: functional; conditions: po
[5] = species on record: Mus musculus; assay: Peroral ED50 value was measured using mouse abdominal irritant test(MAIT); assay type: functional; conditions: Abdomen, po
[6] = species on record: Mus musculus; assay: Peroral ED50 value was measured using mouse tail flick test; assay type: functional; conditions: po
[7] = system: Mus musculus; assay: (§1) potential antinociceptive activity initially at a screening dose of 30 mg/kg po in the mouse abdominal irritant test(MAIT) using acetylcholine bromide as irritant; assay type: functional; conditions: Abdomen
[8] = species on record: Rattus norvegicus; assay: ED50 value was measured using rat air-induced abdominal irritant test(RAIT); assay type: functional; conditions: Abdomen
[9] = biological target: T4, Alpha-2C adrenergic receptor (Rattus norvegicus) (UniProt P22086); assay: % inhibition of alpha-2C adrenergic receptor binding at 1 uM
T4 sequence (whole entry): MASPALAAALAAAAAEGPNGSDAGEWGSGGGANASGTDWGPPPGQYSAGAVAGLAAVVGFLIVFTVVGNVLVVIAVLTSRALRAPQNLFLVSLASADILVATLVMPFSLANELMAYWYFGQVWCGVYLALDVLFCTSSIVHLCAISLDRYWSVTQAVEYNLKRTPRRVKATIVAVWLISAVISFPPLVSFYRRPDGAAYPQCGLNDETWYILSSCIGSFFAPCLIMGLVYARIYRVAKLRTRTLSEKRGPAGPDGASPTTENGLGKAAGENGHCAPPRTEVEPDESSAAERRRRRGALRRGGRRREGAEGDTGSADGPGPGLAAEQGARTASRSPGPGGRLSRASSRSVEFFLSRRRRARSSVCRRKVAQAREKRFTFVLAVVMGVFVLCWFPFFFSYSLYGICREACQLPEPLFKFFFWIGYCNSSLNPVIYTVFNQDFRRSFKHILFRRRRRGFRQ

[10] = biological target: T5, Alpha-2A adrenergic receptor (Rattus norvegicus) (UniProt P22909); assay: % inhibition of alpha-2A adrenergic receptor binding at 1 uM
T5 sequence (whole entry): T2 sequence (P22909 whole entry)

[11] = biological target: T6, Alpha-2C adrenergic receptor (Rattus norvegicus, UniProt P22086); assay: in vitro alpha-2C adrenergic receptor binding assay from rats, using RX 821002 as the displaceable ligand
T6 sequence (P22086 whole entry): T4 sequence (whole entry)

[12] = system: Mus musculus; assay: as §1; conditions: Abdomen, read-out: Inhibition

Q: Which Ki [1] does the source give for `C1=C(c2c[nH]cn2)c2ccsc2CC1` here?
A: 443 nM

Q: What about the Ki [2] of the same compound?
A: 254 nM

Q: What about the Ki [3] of the same compound?
A: 621 nM

Q: What about the ED50 [4] of the same compound?
A: 25.9 mg/kg

Q: What about the ED50 [5] of the same compound?
A: 11.6 mg/kg

Q: What about the ED50 [6] of the same compound?
A: 100 mg/kg

Q: And the inhibition in vivo at 30 mg/kg [7]?
A: 100%

Q: What about the ED50 [8] of the same compound?
A: 15.1 mg/kg

Q: For `C1=C(c2c[nH]cn2)c2sccc2CC1`, which Ki [1] is on record?
A: 399 nM

Q: And the Ki [2]?
A: 224 nM

Q: What about the Ki [3] of the same compound?
A: 940 nM

Q: And the inhibition in vivo at 30 mg/kg [7]?
A: 60%

Q: How did the inhibition in vivo at 30 mg/kg [7] turn out when `Clc1cccc(Cl)c1NC1=NCCN1` [CLONIDINE] was run?
A: 0.05%

Q: And the ED50 [8]?
A: 0.1 mg/kg

Q: Which Ki [1] does the source give for `c1nc(C2CCCc3ccsc32)c[nH]1` (configuration not stated) here?
A: 91 nM

Q: And the inhibition [9]?
A: 54%

Q: And the inhibition in vivo at 30 mg/kg [7]?
A: 73%

Q: What about the inhibition [10] of the same compound?
A: 87%

Q: Which Ki [1] does the source give for `c1cc(-c2c[nH]cn2)c2ccsc2c1` here?
A: 343 nM

Q: What about the Ki [2] of the same compound?
A: 277 nM

Q: What about the Ki [3] of the same compound?
A: 663 nM

Q: And the inhibition in vivo at 30 mg/kg [7]?
A: 60%

Q: What does the source list for `Cc1sc(C)c2c1CCC=C2c1c[nH]cn1`?
A: Ki [1]: 110 nM; Ki [2]: 25 nM; Ki [11]: 26 nM; Ki [3]: 100 nM; inhibition in vivo at 30 mg/kg [7]: 40%

Q: What does the source list for `Cc1cccc([C@H](C)c2cnc[nH]2)c1C` [DEXMEDETOMIDINE]?
A: Ki [2]: 5 nM; ED50 [8]: 0.12 mg/kg; inhibition in vivo at 30 mg/kg [12]: 0.09%

Q: `Cc1sc(C)c2c1CCCC2c1c[nH]cn1` (configuration not stated) was tested. Which Ki [1] did it give?
A: 48 nM

Q: What about the Ki [2] of the same compound?
A: 68 nM

Q: What about the Ki [11] of the same compound?
A: 205 nM

Q: What about the Ki [3] of the same compound?
A: 141 nM

Q: And the inhibition in vivo at 30 mg/kg [7]?
A: 93%

Q: And the ED50 [8]?
A: 7.9 mg/kg

Q: Which results are given for `c1nc(C2CCCc3sccc32)c[nH]1` (configuration not stated)?
A: Ki [1]: 110 nM; Ki [2]: 27 nM; Ki [11]: 172 nM; Ki [3]: 99 nM; inhibition in vivo at 30 mg/kg [7]: 100%; ED50 [8]: 0.9 mg/kg
